Consider one substance from patent publication US20110301079A1, “NEUROMEDIN U RECEPTOR AGONISTS AND USES THEREOF” (Instituto di Ricerche di Biologia Molecolare P. Angeletti …, priority 2007, published 2011).

One may read the EC50 as the concentration giving half of the maximal effect.

What all share (format): cell-based
For one assay, the system named is dog NMUR1-ATG. Briefly: FLIPR calcium mobilization assay, dog NMUR1-ATG cell line. The text has this:
(§1) Human, mouse or rat cDNAs encoding NMUR1 or NMUR2 (as described in Howard et al. Nature 406: 70-74 (2000) were subcloned in pcDNA5 (Invitrogen) and transfected into FLP-In CHO cells and HEK-293 FLP-In cells purchased from Invitrogen (Carlsbad, Calif.) using lipofectamine (Invitrogen). The Flp-In system allows integration and expression of a particular gene of interest at a specific genomic location utilizing the Flp recombinase from yeast. The transfected cells were selected by growth in medium containing 200 μg/mL hygromycin (Invitrogen). Populations were frozen at early passage numbers, and these stocks were used for further studies. Stable clones that expressed the mRNAs were identified functionally by FLIPR as well as by RT-PCR. […] Two different rodent NMUR1 cell lines were thus generated: one with the codon as predicted from the genomic databases and another cell line with an engineered methionine (ATG) as the start codon. The dog NMU receptors were also cloned from intestine RNA (NMUR1) and brain (NMUR2) and stable cell lines were generated as used for the human and rodent cell lines. […] To ensure high levels of expression in a heterologous system, a dog NMUR1 cell line was generated that contains an ATG as the start codon. Additionally, stable cell lines expressing the human receptors were generated in HEK-293/aeq 17 cells which stably express the aequorin gene under the CMV promoter. The human NMUR2 cDNA was cloned into pcDNA3.1 and human NMUR1 was subcloned into pIRES-puro (Clontech, Mountain View, Calif.), after transfection cells were selected in media containing G418 and either hygromycin (NMUR2) or puromycin (NMUR1).
(§2) The NMU receptors signal primarily through Gαq/11 proteins; therefore calcium mobilization assays can be utilized for functional activity.
(§3) Stable cell lines expressing human and or rodent NMUR1 or human NMUR2 receptors are plated at a density of 12,000 cells per well overnight on poly-lysine coated 384-well black-walled plates. The following day, the media is removed from the plates and the cells were subsequently loaded with Fluo-3 (Molecular Probes), a calcium sensitive dye, diluted in FLIPR buffer (1× Hank's buffered saline containing 20 mM HEPES, 0.1% BSA, 2.5 mM probenecid (Sigma) and 1.6 mM TR40). All reagents are from Invitrogen unless otherwise noted. Peptide stocks are resuspended in DMSO at a stock concentration of 2 mM and diluted in FLIPR buffer on the day of the experiment to a 4 μM working stock solution.
(§4) After a 90 minute incubation at room-temperature, cell plates are loaded onto a FLIPR (Molecular Devices) to monitor cellular fluorescence (excitation=488 nm; emission=540 nm) before and after compound/peptide addition. Eight to twelve point dose responses are tested on NMUR-expressing cell lines using FLIPR with 1 μM peptide as the highest dose. The response after peptide addition is taken as the maximum fluorescence units minus the fluorescence immediately prior to stimulation for each well. EC50 values are calculated using GraphPad Prism (San Diego, Calif.) software.
(§5) Percent activity refers to the maximum response at 1 μM compared to the human NMU-25 response at the same concentration.
Background: A change in cytosolic calcium serves as a functional read-out for many receptors and channels.

For the next assay, the target named is T1, mouse NMUR1-ATG (Mus musculus, UniProt O55040).
T1 construct: expressed in transfected cells; host or cells: FLP-In CHO cells and HEK-293 FLP-In cells (pcDNA5)
T1 sequence (O55040 1-428): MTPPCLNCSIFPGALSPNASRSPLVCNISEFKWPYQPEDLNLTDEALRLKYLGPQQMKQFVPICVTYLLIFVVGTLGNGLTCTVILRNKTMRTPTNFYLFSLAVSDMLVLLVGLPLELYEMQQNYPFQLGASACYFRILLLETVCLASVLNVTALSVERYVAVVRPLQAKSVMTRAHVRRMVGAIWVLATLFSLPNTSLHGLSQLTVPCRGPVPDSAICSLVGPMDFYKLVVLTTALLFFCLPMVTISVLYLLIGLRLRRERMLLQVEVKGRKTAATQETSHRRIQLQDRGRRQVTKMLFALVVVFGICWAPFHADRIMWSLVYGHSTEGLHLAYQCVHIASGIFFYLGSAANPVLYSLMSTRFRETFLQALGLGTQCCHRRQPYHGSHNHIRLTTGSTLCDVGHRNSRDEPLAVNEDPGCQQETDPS
Briefly: FLIPR calcium mobilization assay, mouse NMUR1-ATG cell line.
Description: as §1, §2, §3, §4, §5

A further assay addresses T2, human NMUR1 (Homo sapiens, UniProt Q9HB89).
T2 construct: expressed in transfected cells; host or cells: FLP-In CHO cells and HEK-293 FLP-In cells (pcDNA5)
T2 sequence (Q9HB89 1-426): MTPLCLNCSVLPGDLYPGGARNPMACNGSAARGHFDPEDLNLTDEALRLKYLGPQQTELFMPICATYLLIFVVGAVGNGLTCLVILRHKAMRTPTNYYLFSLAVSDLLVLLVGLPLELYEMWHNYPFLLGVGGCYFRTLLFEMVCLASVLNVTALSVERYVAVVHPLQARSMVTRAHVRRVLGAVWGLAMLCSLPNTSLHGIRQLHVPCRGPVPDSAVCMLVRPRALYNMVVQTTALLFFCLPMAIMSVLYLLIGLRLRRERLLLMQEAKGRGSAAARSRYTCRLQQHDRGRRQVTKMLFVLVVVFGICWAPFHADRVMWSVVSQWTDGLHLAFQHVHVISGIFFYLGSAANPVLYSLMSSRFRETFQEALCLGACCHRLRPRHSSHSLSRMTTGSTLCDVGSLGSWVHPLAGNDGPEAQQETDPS
Briefly: FLIPR calcium mobilization assay, human NMUR1-expressing cell line.
Description: as §1, §2, §3, §4, §5

Another assay concerns the target T3, dog NMUR2 (Canis lupus familiaris, UniProt A0A8I3MN59).
T3 construct: expressed in transfected cells
Briefly: FLIPR calcium mobilization assay, dog NMUR2 cell line.
Description: as §1, §2, §3, §4, §5

In the next assay the target is T4, mouse NMUR2 (Mus musculus, UniProt Q8BZ39).
T4 construct: expressed in transfected cells; host or cells: FLP-In CHO cells and HEK-293 FLP-In cells (pcDNA5)
T4 sequence (Q8BZ39 whole entry): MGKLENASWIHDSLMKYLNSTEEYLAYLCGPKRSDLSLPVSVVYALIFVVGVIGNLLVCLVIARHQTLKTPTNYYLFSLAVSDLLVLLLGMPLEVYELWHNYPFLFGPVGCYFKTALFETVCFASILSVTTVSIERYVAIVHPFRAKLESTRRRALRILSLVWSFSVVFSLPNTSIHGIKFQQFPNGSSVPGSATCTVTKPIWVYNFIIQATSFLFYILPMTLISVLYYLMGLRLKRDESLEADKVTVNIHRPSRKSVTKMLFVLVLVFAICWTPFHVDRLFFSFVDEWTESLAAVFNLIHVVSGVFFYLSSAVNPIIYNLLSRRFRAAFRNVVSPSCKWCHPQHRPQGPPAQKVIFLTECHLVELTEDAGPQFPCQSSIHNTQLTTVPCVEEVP
Kind of assay: FLIPR calcium mobilization assay, mouse NMUR2 cell line.
Description: as §1, §2, §3, §4, §5

Setting [1] is: maximum response at 1 μM compared to the human NMU-25 response at the same concentration.

T3 sequence (A0A8I3MN59 1-378): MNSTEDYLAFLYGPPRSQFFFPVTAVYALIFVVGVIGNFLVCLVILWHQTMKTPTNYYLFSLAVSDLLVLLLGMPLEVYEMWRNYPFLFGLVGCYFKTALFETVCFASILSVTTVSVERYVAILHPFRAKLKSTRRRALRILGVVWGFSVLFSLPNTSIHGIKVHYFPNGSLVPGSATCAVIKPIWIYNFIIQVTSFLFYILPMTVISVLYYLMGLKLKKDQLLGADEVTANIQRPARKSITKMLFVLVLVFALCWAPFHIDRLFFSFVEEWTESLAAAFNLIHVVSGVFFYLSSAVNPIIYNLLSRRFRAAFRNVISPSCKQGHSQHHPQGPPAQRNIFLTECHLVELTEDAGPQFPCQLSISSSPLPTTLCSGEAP

Consider “H-ILQRGSGTAAVDFTKKDHTATWGRPFFLFRPRN-NH2 [NMS, reference compound]”, for which the EC50 with dog NMUR1-ATG (FLIPR) stood at 4.4 nM; on mouse NMUR1-ATG (FLIPR), 7 nM; at human NMUR1 (human NMUR1, FLIPR), 6.7 nM; on dog NMUR2 (dog NMUR2, FLIPR), 1 nM; at mouse NMUR2 (mouse NMUR2, FLIPR), 7.8 nM. Moreover, the “% Activity” value is listed as 100% in the assay with dog NMUR1-ATG (setting [1]); 102% at mouse NMUR1-ATG (setting [1]); 97% at human NMUR1 (human NMUR1, maximum response at 1 μM compared to the human NMU-25 response at the same concentration); 104% on dog NMUR2 (dog NMUR2, maximum response at 1 μM compared to the human NMU-25 response at the same concentration); 111% at mouse NMUR2 (mouse NMUR2, maximum response at 1 μM compared to the human NMU-25 response at the same concentration).
